“And” between values parts separate entries of the source, which are not always exact repeats. Identical values can stand only once.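 The compound was tested at five concentrations on cells cultured in 96-well plates, with a 48-hour exposure period. At the GI50, growth is halved. TGI: concentration producing complete growth inhibition.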
Experiments:
Assay in all cases: NCI anticancer screen, dose series, 48 h
[1] = tested on: HOP-92 NSCLC
[2] = tested on: SF-539 CNS
[3] = tested on: NCI-H23 lung
[4] = tested on: EKVX NSCLC
[5] = tested on: KM12 colon
[6] = tested on: UO-31 renal
[7] = tested on: ACHN renal
[8] = tested on: NCI-H522 lung
[9] = tested on: SK-MEL-28 melanoma
[10] = tested on: CCRF-CEM leukemia

## COC(=O)C(CC(=O)Nc1ccc(Cl)c(Cl)c1)C(=O)C(=O)Nc1ccc(Cl)c(Cl)c1 (configuration not stated)
[1]
  TGI: > 100 µM
[2]
  TGI: > 100 µM
[3]
  TGI: > 100 µM
[4]
  TGI: > 100 µM
[5]
  TGI: > 100 µM
[6]
  TGI: > 100 µM
[7]
  TGI: > 100 µM
[8]
  TGI: > 100 µM
[9]
  TGI: > 100 µM
[10]
  TGI: > 100 µM

## CCCCCCCCCCCCCCCCOP(=O)([O-])OCC[N+](C)(C)C
[1]
  GI50: 1.14 µM
  TGI: 3.12 µM and 15.3 µM
[2]
  GI50: 2.34 µM
  TGI: 5.86 µM and 52.9 µM
[3]
  GI50: 3.17 µM
  TGI: 13.3 µM and 65.3 µM
[4]
  GI50: 2.63 µM
  TGI: 11.1 µM and 58.6 µM
[5]
  GI50: 0.341 µM
  TGI: 1.78 µM and 10.3 µM
[6]
  GI50: 1.47 µM
[7]
  GI50: 1.6 µM
  TGI: 3.63 µM and 30.8 µM
[8]
  GI50: 0.885 µM
[9]
  GI50: 3.65 µM
  TGI: 14.2 µM and 58.5 µM
[10]
  GI50: 1.09 µM and 9.72 µM

## N/N=C(\c1nc2ccc(Cl)cc2[nH]c1=O)C(O)c1ccc(Cl)c(Cl)c1 (configuration not stated)
[1]
  TGI: > 100 µM
[2]
  TGI: > 100 µM
[3]
  TGI: > 100 µM
[4]
  TGI: > 100 µM
[5]
  TGI: > 100 µM
[6]
  TGI: > 100 µM
[7]
  TGI: > 100 µM
[8]
  TGI: > 100 µM
[9]
  TGI: > 100 µM
[10]
  TGI: > 100 µM

## C=CCC1(C(=O)OC(C)(C)C)C(OC)=C(C(=O)OC(C)(C)C)C2C1C(C(=O)OC(C)(C)C)=C(OC)C2(CC=C)C(=O)OC(C)(C)C (configuration not stated)
[1]
  TGI: > 100 µM
[2]
  TGI: > 100 µM
[3]
  TGI: > 100 µM
[4]
  TGI: > 100 µM
[5]
  TGI: > 100 µM
[6]
  TGI: > 100 µM
[7]
  TGI: > 100 µM
[8]
  TGI: > 100 µM
[9]
  TGI: > 100 µM
[10]
  TGI: > 100 µM

## CC(C)=CC(=O)N[C@H]1CC[C@]2(C)C3CC[C@]4(C)C(C(C)N(C)C)=CCC4C3CCC2[C@H]1O (some centres not stated)
[1]
  GI50: 7.72 µM
  TGI: 22 µM
[2]
  GI50: 1.59 µM
  TGI: 3.38 µM
[3]
  GI50: 9.27 µM
  TGI: 22.7 µM
[4]
  GI50: 6.38 µM
  TGI: 23.2 µM
[5]
  GI50: 3.48 µM
  TGI: 14.2 µM
[6]
  GI50: 1.88 µM
  TGI: 4.51 µM
[7]
  GI50: 7.95 µM
  TGI: 21.3 µM
[8]
  GI50: 5.61 µM
  TGI: 20.7 µM
[9]
  GI50: 1.82 µM
  TGI: 3.4 µM
[10]
  GI50: 2.92 µM
  TGI: 14.3 µM

## N#C/C(=N\Nc1ccccc1)C(=O)Nc1cc(-c2ccccc2)nn1-c1ccccc1
[1]
  GI50: 0.181 µM
  TGI: 2.58 µM
[2]
  GI50: 3.3 µM
  TGI: 19.7 µM
[3]
  GI50: 2.73 µM
  TGI: 60.5 µM
[4]
  GI50: 2.93 µM
  TGI: > 100 µM
[5]
  GI50: 2.97 µM
  TGI: > 100 µM
[6]
  GI50: 2.58 µM
  TGI: > 100 µM
[7]
  GI50: 2.98 µM
  TGI: > 100 µM
[8]
  GI50: 2.06 µM
  TGI: 12.6 µM
[9]
  GI50: 3.78 µM
  TGI: > 100 µM
[10]
  GI50: 2.5 µM
  TGI: > 100 µM

## CCCCCCCC(=O)SCC/C=C/[C@@H]1CC(=O)NCc2nc(cs2)C2=N[C@@](C)(CS2)C(=O)N[C@@H](C(C)C)C(=O)N1
[1]
  GI50: < 0.0119 µM
  TGI: 0.229 µM
[2]
  GI50: 0.0381 µM
  TGI: > 57.8 µM
[3]
  GI50: 0.0399 µM
  TGI: 20.8 µM
[4]
  GI50: 0.0662 µM
  TGI: > 100 µM
[5]
  GI50: 0.0389 µM
  TGI: > 100 µM
[6]
  GI50: 0.741 µM
  TGI: 21.2 µM
[7]
  GI50: 0.508 µM
  TGI: 12 µM
[8]
  GI50: 0.0278 µM
  TGI: 11.1 µM
[9]
  GI50: 0.0185 µM
  TGI: 25.8 µM
[10]
  GI50: 0.0265 µM
  TGI: > 100 µM

## Cc1ccc2nc3cc(C)c(=O)cc-3sc2c1
[1]
  TGI: > 100 µM
[2]
  TGI: > 100 µM
[3]
  TGI: > 100 µM
[4]
  TGI: > 100 µM
[5]
  TGI: > 100 µM
[6]
  TGI: > 100 µM
[7]
  TGI: > 100 µM
[8]
  TGI: > 100 µM
[9]
  TGI: > 100 µM
[10]
  TGI: 45.2 µM

## CCCN(CCC)C(=O)c1nc(N)nc(-c2ccc(OC)cc2)c1-c1ccc(OC)cc1
[1]
  TGI: > 100 µM
[2]
  TGI: > 100 µM
[3]
  TGI: > 100 µM
[4]
  TGI: > 100 µM
[5]
  TGI: > 100 µM
[6]
  TGI: > 100 µM
[7]
  TGI: > 100 µM
[8]
  TGI: > 100 µM
[9]
  TGI: > 100 µM
[10]
  TGI: > 100 µM

## Cc1nc(/C=C2\C(=O)C=Cc3ccccc32)c(O)o1
[1]
  TGI: > 100 µM
[2]
  TGI: > 100 µM
[3]
  TGI: > 100 µM
[4]
  TGI: > 100 µM
[5]
  TGI: > 100 µM
[6]
  TGI: > 100 µM
[7]
  TGI: > 100 µM
[8]
  TGI: > 100 µM
[9]
  TGI: > 100 µM
[10]
  TGI: > 100 µM

## CC(=O)NNc1nc(C)c(C(=O)/C=C/c2ccc(Cl)cc2)s1
[1]
  TGI: > 100 µM
[2]
  TGI: > 100 µM
[3]
  TGI: > 100 µM
[4]
  TGI: > 100 µM
[5]
  TGI: > 100 µM
[6]
  TGI: > 100 µM
[7]
  TGI: > 100 µM
[8]
  TGI: > 100 µM
[9]
  TGI: > 100 µM
[10]
  TGI: > 100 µM

## Cc1ccc(S(=O)(=O)OC(COC(=O)c2ccccc2)C(OS(=O)(=O)c2ccc(C)cc2)C(OS(=O)(=O)c2ccc(C)cc2)C(COC(=O)c2ccccc2)OS(=O)(=O)c2ccc(C)cc2)cc1 (configuration not stated)
[1]
  TGI: > 100 µM
[2]
  TGI: > 100 µM
[3]
  TGI: > 100 µM
[4]
  TGI: > 100 µM
[5]
  TGI: > 100 µM
[6]
  TGI: > 100 µM
[7]
  TGI: > 100 µM
[8]
  TGI: > 100 µM
[9]
  TGI: > 100 µM
[10]
  TGI: > 100 µM

## O=C(Nc1ccc(F)cc1)Nc1ccc(Br)c(C(F)(F)F)c1
[1]
  GI50: 1.63 µM
  TGI: 5.24 µM
[2]
  GI50: 2.58 µM
  TGI: 8.43 µM
[3]
  GI50: 2.04 µM
  TGI: 9.5 µM
[4]
  GI50: 2.4 µM
  TGI: 10.6 µM
[5]
  GI50: 1.96 µM
  TGI: 7.92 µM
[6]
  GI50: 2.35 µM
  TGI: 10.6 µM
[7]
  GI50: 2.09 µM
  TGI: 7.64 µM
[8]
  GI50: 1.56 µM
  TGI: 5.87 µM
[9]
  GI50: 2.83 µM
  TGI: 11.1 µM
[10]
  GI50: 2.27 µM
  TGI: 6.53 µM

## O=C(c1ccco1)c1c(C(F)(F)F)n([O-])c2cc(C(F)(F)F)ccc2[n+]1=O
[1]
  GI50: 0.252 µM
  TGI: 1.51 µM
[2]
  GI50: 1.27 µM
  TGI: 2.61 µM
[3]
  GI50: 1.15 µM
  TGI: 2.62 µM
[4]
  GI50: 0.859 µM
  TGI: 2.36 µM
[5]
  GI50: 0.516 µM
  TGI: 1.19 µM
[6]
  GI50: 0.517 µM
  TGI: 1.02 µM
[7]
  GI50: 0.338 µM
  TGI: 0.748 µM
[8]
  GI50: 0.54 µM
  TGI: 1.17 µM
[9]
  GI50: 1.67 µM
  TGI: 3.27 µM
[10]
  GI50: < 0.0434 µM
  TGI: 0.352 µM

## CC(=O)OC12c3ccccc3-c3ccccc3C1C(C(=O)O)C2C(=O)O (configuration not stated)
[1]
  TGI: > 10 µM
[2]
  TGI: > 10 µM
[3]
  TGI: > 10 µM
[4]
  TGI: > 10 µM
[5]
  TGI: > 10 µM
[6]
  TGI: > 10 µM
[7]
  TGI: > 10 µM
[8]
  TGI: > 10 µM
[9]
  TGI: > 10 µM
[10]
  TGI: > 10 µM

## C[C@]12CC[C@H]3[C@@H](CC4SC(N)=NC45C/C(=N/NC(N)=O)CC[C@]35C)[C@@H]1CCC2=O (some centres not stated)
[1]
  GI50: 1.51 µM
  TGI: 3.16 µM
[2]
  GI50: 2.05 µM
  TGI: 5.23 µM
[3]
  GI50: 1.78 µM
  TGI: 3.32 µM
[4]
  GI50: 1.8 µM
  TGI: 3.63 µM
[5]
  GI50: 2.01 µM
  TGI: 4.02 µM
[6]
  GI50: 1.52 µM
  TGI: 2.88 µM
[7]
  GI50: 1.8 µM
  TGI: 3.19 µM
[8]
  GI50: 1.93 µM
  TGI: 4.06 µM
[9]
  GI50: 1.63 µM
  TGI: 3.1 µM
[10]
  GI50: 0.28 µM
  TGI: 1.62 µM

— PubChem BioAssay (NCI)
